Laboratory results taken from US9050341B2, “Methods of treating drug resistant and other tumors by administering 6,7-dialkoxy quinazoline derivatives” (NATCO PHARMA LIMITED, priority 2009, dated 2015).

What was measured:
Experiment in all cases: KinomeScan kinase profiling
Format in all cases: binding
FRK = biological target: T1, FRK (Homo sapiens, UniProt P42685)
T1 construct: host or cells: E. coli host derived from BL21, infected with T7 phage
Outline: (§1)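 Kinases were expressed as T7 phage fusions in a BL21-derived E. coli host and the cleared lysates were used. Ligand beads were blocked with biotin and buffer (1% BSA, 0.05% Tween 20, 1 mM DTT). Compounds came from 40× DMSO stocks, and phage in the eluates was titred by qPCR.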

DAPK3 = biological target: T2, DAPK3 (Homo sapiens, UniProt O43293)
T2 construct: purchased Ambit Biosciences Corp (KinomeScan); host or cells: T7 phage in E. coli host derived from BL21
Outline: as §1

PLK1 = biological target: T3, PLK1 (Homo sapiens, UniProt P53350)
T3 construct: purchased Ambit Biosciences Corp (KinomeScan); host or cells: E. coli host derived from BL21, infected with T7 phage
T3 sequence (P53350 whole entry): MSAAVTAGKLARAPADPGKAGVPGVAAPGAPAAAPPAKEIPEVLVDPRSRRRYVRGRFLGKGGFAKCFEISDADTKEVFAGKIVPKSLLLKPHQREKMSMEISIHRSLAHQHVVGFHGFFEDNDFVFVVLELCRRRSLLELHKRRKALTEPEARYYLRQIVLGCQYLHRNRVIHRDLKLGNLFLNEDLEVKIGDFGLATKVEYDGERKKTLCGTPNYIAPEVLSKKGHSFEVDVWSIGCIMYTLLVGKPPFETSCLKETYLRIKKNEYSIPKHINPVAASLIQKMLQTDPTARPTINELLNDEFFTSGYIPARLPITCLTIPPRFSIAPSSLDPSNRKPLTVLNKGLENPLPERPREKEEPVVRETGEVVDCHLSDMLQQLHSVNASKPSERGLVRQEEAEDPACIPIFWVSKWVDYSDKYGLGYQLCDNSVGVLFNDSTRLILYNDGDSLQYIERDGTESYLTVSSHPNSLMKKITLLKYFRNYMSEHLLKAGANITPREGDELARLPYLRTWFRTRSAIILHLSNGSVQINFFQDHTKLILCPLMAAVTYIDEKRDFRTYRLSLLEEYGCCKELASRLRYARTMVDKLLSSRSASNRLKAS
Outline: as §1

CLK3 = biological target: T4, CLK3 (Homo sapiens, UniProt P49761)
T4 construct: host or cells: T7 phage in E. coli (BL21-derived)
Outline: as §1

YANK3 = biological target: T5, YANK3 (Homo sapiens, UniProt Q86UX6)
T5 construct: purchased Ambit Biosciences Corp (KinomeScan); host or cells: E. coli host derived from the BL21 strain (T7 phage lysate)
Outline: as §1

CSNK2A1 = biological target: T6, CSNK2A1 (Homo sapiens, UniProt P68400)
T6 construct: purchased Ambit Biosciences Corp (KinomeScan); host or cells: T7 phage in E. coli host derived from BL21
Outline: as §1

PRKD3 = biological target: T7, PRKD3 (Homo sapiens, UniProt O94806)
T7 construct: purchased Ambit Biosciences Corp (KinomeScan); host or cells: E. coli host derived from BL21, infected with T7 phage
T7 sequence (O94806 whole entry): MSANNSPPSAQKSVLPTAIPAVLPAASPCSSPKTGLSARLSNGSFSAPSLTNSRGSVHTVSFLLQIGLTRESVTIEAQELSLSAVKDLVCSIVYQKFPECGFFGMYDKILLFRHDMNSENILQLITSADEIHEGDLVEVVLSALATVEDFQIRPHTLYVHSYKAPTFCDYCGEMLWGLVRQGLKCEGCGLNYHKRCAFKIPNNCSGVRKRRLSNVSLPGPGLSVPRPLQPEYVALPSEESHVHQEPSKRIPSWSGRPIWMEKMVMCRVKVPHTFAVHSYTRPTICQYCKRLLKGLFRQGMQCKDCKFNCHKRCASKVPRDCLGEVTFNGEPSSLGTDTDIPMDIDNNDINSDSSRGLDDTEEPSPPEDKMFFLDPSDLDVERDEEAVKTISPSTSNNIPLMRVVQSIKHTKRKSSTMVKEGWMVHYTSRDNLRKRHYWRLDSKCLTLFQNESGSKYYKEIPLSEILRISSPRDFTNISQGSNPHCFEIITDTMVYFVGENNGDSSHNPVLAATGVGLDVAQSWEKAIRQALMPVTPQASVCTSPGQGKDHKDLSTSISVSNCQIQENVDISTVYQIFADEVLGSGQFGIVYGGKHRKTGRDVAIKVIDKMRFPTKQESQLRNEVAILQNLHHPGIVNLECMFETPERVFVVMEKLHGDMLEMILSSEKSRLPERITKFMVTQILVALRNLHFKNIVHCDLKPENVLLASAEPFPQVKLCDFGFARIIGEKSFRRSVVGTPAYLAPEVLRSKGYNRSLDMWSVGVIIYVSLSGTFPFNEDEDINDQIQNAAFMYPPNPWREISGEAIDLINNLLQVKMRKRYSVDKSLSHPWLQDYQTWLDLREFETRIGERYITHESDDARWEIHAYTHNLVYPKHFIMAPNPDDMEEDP
Outline: as §1

SgK110 = biological target: T8, SgK110 (Homo sapiens, UniProt P0C264)
T8 construct: host or cells: E. coli host derived from the BL21 strain, T7 phage lysate
T8 sequence (P0C264 whole entry): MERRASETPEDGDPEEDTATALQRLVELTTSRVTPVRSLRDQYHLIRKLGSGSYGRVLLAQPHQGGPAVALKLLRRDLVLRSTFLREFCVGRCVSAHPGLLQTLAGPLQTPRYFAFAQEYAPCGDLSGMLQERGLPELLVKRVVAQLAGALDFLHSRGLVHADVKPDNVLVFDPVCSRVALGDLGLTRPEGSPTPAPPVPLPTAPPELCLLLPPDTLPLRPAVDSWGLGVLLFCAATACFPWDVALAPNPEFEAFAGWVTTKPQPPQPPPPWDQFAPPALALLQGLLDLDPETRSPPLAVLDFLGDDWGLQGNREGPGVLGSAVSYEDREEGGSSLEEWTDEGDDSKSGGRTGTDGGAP
Outline: as §1

RAF1 = biological target: T9, RAF1 (Homo sapiens, UniProt P04049)
T9 construct: host or cells: E. coli host derived from BL21, T7 phage lysate
Outline: as §1

FLT4 = biological target: T10, FLT4 (Homo sapiens, UniProt P35916)
T10 construct: host or cells: E. coli host derived from BL21, infected with T7 phage
T10 sequence (P35916 25-1363): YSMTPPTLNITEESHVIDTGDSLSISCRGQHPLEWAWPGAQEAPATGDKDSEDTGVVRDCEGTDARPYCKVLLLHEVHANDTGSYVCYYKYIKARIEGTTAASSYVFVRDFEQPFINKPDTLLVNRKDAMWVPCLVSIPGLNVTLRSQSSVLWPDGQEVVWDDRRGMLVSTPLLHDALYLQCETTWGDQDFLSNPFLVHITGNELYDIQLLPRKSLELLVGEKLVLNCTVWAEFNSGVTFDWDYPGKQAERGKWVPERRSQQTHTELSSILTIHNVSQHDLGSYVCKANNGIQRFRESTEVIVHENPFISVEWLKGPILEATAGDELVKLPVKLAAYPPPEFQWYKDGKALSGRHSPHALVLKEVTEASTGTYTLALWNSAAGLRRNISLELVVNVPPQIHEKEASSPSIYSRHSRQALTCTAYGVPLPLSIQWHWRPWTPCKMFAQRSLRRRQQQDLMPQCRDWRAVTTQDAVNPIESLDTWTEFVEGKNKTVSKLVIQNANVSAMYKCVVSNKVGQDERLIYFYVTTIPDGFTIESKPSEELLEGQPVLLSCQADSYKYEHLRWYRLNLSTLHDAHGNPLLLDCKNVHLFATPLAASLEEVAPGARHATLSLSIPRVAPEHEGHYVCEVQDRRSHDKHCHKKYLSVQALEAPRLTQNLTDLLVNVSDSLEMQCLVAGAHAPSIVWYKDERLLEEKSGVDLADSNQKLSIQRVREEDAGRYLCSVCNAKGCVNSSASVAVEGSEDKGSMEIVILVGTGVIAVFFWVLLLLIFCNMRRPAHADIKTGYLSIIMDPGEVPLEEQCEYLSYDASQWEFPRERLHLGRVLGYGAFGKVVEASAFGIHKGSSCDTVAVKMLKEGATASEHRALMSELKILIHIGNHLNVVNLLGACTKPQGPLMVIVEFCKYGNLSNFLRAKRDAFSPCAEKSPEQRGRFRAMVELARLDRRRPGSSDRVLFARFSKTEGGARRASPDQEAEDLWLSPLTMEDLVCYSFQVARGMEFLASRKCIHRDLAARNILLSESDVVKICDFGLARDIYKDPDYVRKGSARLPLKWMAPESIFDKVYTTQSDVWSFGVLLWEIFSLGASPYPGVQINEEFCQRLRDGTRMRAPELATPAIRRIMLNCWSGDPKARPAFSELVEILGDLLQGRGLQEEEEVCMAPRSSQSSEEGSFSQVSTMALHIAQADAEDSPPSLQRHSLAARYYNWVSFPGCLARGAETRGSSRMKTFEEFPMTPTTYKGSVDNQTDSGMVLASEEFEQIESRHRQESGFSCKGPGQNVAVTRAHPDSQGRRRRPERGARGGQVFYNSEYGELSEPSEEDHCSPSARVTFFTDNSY
Outline: as §1

TNK2 = biological target: T11, TNK2 (Homo sapiens, UniProt Q07912)
T11 construct: purchased Ambit Biosciences Corp (KinomeScan); host or cells: E. coli host derived from the BL21 strain (T7 phage lysate)
Outline: as §1

MEK4 = biological target: T12, MEK4 (Homo sapiens, UniProt P45985)
T12 construct: host or cells: E. coli derived from BL21, infected with T7 phage
Outline: as §1

[1] = biological target: T13, TYK2 (JH2domain-pseudokinase) (Homo sapiens, UniProt P29597)
T13 construct: TYK2 (JH2domain-pseudokinase); purchased Ambit Biosciences Corp (KinomeScan); host or cells: E. coli host derived from the BL21 strain (T7 phage lysate)
T13 sequence (P29597 589-875 limits assumed): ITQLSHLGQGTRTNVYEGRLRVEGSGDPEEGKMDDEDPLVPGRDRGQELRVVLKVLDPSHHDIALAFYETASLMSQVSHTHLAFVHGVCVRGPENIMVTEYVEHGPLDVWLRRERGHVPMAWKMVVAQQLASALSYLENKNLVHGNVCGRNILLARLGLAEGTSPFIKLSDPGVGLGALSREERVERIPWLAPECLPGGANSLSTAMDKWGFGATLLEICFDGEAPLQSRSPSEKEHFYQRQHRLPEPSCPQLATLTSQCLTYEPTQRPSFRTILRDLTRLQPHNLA
Outline: as §1

JNK3 = biological target: T14, JNK3 (Homo sapiens, UniProt P53779)
T14 construct: host or cells: T7 phage in E. coli host derived from BL21
Outline: as §1

EPHA8 = biological target: T15, EPHA8 (Homo sapiens, UniProt P29322)
T15 construct: host or cells: E. coli host derived from BL21, T7 phage lysate
Outline: as §1

LCK = biological target: T16, LCK (Homo sapiens, UniProt P06239)
T16 construct: host or cells: T7 phage in E. coli host derived from BL21
Outline: as §1

STK36 = biological target: T17, STK36 (Homo sapiens, UniProt Q9NRP7)
T17 construct: host or cells: E. coli host derived from the BL21 strain, T7 phage lysate
T17 sequence (Q9NRP7 whole entry): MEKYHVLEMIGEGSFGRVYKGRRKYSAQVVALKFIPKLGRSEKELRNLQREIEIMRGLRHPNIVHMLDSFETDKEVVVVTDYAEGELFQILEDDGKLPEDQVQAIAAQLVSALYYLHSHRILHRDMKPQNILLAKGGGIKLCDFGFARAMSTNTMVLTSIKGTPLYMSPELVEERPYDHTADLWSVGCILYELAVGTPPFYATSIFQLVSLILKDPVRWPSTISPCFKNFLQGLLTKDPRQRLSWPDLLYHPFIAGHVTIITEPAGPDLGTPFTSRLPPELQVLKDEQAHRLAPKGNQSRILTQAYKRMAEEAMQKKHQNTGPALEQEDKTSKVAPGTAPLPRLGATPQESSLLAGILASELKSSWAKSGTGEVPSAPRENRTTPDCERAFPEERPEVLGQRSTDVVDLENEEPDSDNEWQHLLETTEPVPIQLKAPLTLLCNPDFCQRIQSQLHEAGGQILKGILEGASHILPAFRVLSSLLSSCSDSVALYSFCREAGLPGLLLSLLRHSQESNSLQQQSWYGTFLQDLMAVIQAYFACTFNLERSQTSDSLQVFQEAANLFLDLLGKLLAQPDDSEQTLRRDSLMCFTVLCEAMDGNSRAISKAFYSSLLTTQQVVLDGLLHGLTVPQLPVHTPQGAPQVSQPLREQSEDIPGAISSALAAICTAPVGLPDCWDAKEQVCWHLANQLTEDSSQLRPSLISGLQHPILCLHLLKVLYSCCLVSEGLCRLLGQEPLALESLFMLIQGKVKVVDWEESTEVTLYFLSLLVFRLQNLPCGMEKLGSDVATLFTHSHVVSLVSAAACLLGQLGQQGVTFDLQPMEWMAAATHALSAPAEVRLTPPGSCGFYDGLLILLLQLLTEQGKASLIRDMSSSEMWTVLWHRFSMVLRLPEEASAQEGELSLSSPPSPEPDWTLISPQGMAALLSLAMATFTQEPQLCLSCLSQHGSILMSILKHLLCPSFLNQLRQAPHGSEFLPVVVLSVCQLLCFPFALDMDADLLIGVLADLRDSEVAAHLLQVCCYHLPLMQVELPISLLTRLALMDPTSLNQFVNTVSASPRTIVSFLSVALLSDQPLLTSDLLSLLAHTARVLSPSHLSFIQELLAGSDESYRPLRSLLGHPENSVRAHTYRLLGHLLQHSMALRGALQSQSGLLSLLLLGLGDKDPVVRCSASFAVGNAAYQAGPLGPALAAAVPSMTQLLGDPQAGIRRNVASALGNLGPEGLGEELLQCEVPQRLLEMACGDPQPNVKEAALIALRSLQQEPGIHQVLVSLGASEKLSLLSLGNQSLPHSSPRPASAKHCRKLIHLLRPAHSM
Outline: as §1

ABL2 = biological target: T18, ABL2 (Homo sapiens, UniProt P42684)
T18 construct: host or cells: E. coli host derived from BL21 (T7 phage lysate)
Outline: as §1

[2] = biological target: T19, RPS6KA5 (Kin.Dom.-2-C-terminal) (Homo sapiens, UniProt O75582)
T19 construct: RPS6KA5 (Kin.Dom.-2-C-terminal); host or cells: E. coli host derived from BL21, T7 phage lysate
T19 sequence (O75582 426-687 limits assumed): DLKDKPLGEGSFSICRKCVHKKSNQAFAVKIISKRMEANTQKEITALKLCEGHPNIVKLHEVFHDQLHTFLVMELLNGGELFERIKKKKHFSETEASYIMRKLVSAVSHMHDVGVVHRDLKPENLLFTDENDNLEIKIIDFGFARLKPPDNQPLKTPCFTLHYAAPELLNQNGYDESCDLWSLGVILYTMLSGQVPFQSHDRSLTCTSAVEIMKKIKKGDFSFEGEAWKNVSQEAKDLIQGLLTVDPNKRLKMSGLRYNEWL
Outline: as §1

DRAK2 = biological target: T20, DRAK2 (Homo sapiens, UniProt O94768)
T20 construct: purchased Ambit Biosciences Corp (KinomeScan); host or cells: T7 phage in E. coli host derived from BL21
Outline: as §1

TNIK = biological target: T21, TNIK (Homo sapiens, UniProt Q9UKE5)
T21 construct: purchased Ambit Biosciences Corp (KinomeScan); host or cells: E. coli host derived from the BL21 strain (T7 phage lysate)
Outline: as §1

TIE2 = biological target: T22, TIE2 (Homo sapiens, UniProt Q02763)
T22 construct: purchased Ambit Biosciences Corp (KinomeScan); host or cells: E. coli host derived from the BL21 strain (T7 phage lysate)
Outline: as §1

For `C#Cc1cccc(Nc2ncnc3cc(OC)c(OCCCN4CCOCC4)cc23)c1` [NRC-2694, N-(3-ethylnylphenyl)-7-methoxy-6-[3-(4-morpholinyl)propoxy]-4-quinazolinamine], which “% Ctrl @ 10000 nM” value (FRK) is on record?
Its value is 10 % Ctrl.

And the “% Ctrl @ 10000 nM” value (DAPK3)?
The value was 34 % Ctrl.

And the “% Ctrl @ 10000 nM” value (PLK1)?
The value was 81 % Ctrl.

And the “% Ctrl @ 10000 nM” value (CLK3)?
The value was 45 % Ctrl.

What about the “% Ctrl @ 10000 nM” value (YANK3) of the same compound?
The value was 100 % Ctrl.

And the “% Ctrl @ 10000 nM” value (CSNK2A1)?
Its value is 56 % Ctrl.

What about the “% Ctrl @ 10000 nM” value (PRKD3) of the same compound?
Its value is 7.2 % Ctrl.

And the “% Ctrl @ 10000 nM” value (SgK110)?
Its value is 83 % Ctrl.

And the “% Ctrl @ 10000 nM” value (RAF1)?
The value was 100 % Ctrl.

And the “% Ctrl @ 10000 nM” value (FLT4)?
Its value is 66 % Ctrl.

And the “% Ctrl @ 10000 nM” value (TNK2)?
The value was 37 % Ctrl.

What about the “% Ctrl @ 10000 nM” value (MEK4) of the same compound?
Its value is 92 % Ctrl.

And the “% Ctrl @ 10000 nM” value [1]?
The value was 23 % Ctrl.

And the “% Ctrl @ 10000 nM” value (JNK3)?
Its value is 77 % Ctrl.

What about the “% Ctrl @ 10000 nM” value (EPHA8) of the same compound?
The value was 66 % Ctrl.

And the “% Ctrl @ 10000 nM” value (LCK)?
The value was 1.5 % Ctrl.

And the “% Ctrl @ 10000 nM” value (STK36)?
The value was 4.6 % Ctrl.

And the “% Ctrl @ 10000 nM” value (ABL2)?
The value was 43 % Ctrl.

And the “% Ctrl @ 10000 nM” value [2]?
Its value is 57 % Ctrl.

What about the “% Ctrl @ 10000 nM” value (DRAK2) of the same compound?
Its value is 58 % Ctrl.

And the “% Ctrl @ 10000 nM” value (TNIK)?
The value was 17 % Ctrl.

What about the “% Ctrl @ 10000 nM” value (TIE2) of the same compound?
The value was 76 % Ctrl.
